{"source": "ChEMBL document CHEMBL1201862", "about": "“PubChem BioAssay data set” (2004)", "key": {"[1]": {"molecular_target": "T1, Polyadenylate-binding protein 1 (Homo sapiens, UniProt P11940)", "T1 sequence (P11940 whole entry)": "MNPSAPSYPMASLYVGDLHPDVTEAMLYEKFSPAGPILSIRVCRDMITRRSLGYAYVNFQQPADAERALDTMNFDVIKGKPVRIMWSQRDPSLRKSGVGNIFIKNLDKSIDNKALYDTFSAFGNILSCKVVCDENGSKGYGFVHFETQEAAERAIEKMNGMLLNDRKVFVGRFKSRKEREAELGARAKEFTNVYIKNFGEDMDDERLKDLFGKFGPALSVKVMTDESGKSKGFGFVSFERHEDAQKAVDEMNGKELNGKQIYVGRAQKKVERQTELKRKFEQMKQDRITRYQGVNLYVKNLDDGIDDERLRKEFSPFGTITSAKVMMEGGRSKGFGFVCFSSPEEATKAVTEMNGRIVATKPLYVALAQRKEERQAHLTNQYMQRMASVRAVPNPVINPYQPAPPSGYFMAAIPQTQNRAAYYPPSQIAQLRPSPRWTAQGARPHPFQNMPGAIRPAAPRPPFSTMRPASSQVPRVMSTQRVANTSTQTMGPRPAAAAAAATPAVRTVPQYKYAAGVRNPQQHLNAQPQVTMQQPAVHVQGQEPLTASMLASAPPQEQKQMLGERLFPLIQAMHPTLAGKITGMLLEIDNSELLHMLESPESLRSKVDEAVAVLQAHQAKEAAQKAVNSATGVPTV", "experiment": "PABP1 MLLE–PAM2 interaction inhibitors, dose response, miRNA deadenylation inhibitor project, biochemical, fluorescence polarization, Cy5-PAM2 peptide, secondary (AID 602260)", "type": "functional", "conditions": "read-out: IC50_Mean"}, "[2]": {"molecular_target": "T1, Polyadenylate-binding protein 1", "experiment": "PABP1 MLLE–PAM2 binding inhibitor potency, dose response, biochemical, fluorescence polarization, FITC-PAM2 peptide (AID 602259)", "type": "functional", "conditions": "read-out: IC50_Mean"}, "Fatty acid synthase [3]": {"molecular_target": "T2, Fatty acid synthase (Homo sapiens, UniProt P49327)", "T2 sequence (P49327 whole entry, the tested form may be a part)": "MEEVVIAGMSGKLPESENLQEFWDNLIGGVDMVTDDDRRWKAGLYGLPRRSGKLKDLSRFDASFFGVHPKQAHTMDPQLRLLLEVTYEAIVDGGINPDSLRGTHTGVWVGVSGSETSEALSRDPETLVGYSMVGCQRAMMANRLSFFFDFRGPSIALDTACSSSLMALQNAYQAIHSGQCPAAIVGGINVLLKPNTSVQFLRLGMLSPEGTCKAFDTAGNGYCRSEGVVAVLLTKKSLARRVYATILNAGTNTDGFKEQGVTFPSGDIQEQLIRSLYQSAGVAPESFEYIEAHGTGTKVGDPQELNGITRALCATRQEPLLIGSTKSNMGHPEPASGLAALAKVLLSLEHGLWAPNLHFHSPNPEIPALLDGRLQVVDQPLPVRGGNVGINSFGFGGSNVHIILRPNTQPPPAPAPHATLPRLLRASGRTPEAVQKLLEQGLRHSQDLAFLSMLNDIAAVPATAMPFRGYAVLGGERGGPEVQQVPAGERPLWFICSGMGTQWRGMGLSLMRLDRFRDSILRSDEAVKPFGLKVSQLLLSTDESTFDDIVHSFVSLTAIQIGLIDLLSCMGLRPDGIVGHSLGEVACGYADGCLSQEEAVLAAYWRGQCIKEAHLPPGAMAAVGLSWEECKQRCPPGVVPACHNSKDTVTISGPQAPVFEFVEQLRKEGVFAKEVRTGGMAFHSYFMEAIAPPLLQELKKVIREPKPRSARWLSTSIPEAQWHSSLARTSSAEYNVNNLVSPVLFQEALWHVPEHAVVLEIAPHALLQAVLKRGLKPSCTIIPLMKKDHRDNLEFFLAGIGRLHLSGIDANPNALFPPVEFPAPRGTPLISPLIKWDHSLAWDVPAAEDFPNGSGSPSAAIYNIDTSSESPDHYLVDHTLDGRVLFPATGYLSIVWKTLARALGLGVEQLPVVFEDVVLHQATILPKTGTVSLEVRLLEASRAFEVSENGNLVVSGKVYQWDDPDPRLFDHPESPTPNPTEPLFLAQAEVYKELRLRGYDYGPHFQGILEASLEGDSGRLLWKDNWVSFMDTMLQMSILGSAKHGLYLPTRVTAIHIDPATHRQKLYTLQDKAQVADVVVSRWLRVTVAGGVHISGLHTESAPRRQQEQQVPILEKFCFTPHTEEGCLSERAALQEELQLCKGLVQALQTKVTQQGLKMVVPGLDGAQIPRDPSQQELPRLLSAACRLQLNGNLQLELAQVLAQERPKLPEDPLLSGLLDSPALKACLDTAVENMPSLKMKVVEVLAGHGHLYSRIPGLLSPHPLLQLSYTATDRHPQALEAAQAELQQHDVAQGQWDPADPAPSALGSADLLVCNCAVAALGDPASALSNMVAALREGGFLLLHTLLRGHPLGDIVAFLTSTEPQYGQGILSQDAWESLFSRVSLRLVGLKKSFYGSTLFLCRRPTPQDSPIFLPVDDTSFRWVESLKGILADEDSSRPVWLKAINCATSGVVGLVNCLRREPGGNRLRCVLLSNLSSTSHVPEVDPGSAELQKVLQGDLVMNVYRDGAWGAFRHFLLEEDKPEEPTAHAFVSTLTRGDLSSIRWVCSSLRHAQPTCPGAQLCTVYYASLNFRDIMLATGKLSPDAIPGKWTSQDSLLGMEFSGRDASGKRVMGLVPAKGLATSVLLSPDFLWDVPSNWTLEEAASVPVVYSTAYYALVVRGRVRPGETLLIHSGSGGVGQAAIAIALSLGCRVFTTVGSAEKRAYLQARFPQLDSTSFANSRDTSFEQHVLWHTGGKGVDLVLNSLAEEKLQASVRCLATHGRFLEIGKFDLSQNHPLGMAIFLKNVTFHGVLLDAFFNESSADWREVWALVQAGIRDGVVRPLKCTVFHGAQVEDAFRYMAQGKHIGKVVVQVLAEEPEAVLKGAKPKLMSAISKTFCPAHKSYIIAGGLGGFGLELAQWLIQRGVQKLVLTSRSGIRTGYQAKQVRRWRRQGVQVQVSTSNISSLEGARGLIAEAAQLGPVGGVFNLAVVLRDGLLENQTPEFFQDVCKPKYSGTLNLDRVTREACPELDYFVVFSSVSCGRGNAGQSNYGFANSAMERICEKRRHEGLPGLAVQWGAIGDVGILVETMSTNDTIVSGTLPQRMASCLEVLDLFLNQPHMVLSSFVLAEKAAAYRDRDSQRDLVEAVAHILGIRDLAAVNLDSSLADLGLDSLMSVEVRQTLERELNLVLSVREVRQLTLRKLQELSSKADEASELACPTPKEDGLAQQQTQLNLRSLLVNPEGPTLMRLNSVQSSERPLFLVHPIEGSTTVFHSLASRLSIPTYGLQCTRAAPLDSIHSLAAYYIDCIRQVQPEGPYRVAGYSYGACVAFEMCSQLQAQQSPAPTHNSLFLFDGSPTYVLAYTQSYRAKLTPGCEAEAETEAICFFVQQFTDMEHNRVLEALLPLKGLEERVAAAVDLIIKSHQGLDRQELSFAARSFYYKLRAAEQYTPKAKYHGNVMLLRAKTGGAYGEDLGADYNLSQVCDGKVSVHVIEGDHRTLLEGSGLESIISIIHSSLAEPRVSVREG", "experiment": "FAS thioesterase domain inhibitors, dose response, biochemical, endpoint fluorescence intensity, uHTS hits (AID 624327);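 also: fluorescence from hydrolysis of an O-methyl fluorescein acyl ester substrate by the enzyme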", "type": "functional"}, "Fatty acid synthase [4]": {"molecular_target": "T2, Fatty acid synthase", "experiment": "FAS thioesterase domain inhibitors, dose response, biochemical, kinetic fluorescence intensity (AID 624326);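 also: rate of fluorescence rise from hydrolysis of a fluorogenic O-methyl fluorescein ester substrate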", "type": "functional"}, "[5]": {"experiment": "Luminescence Cell-Based Dose Confirmation HTS to Identify Activators of 5'UTR Stem-Loop Driven Alpha-Synuclein mRNA Translation in H4 Neuroglioblastoma Cells. [Related pubchem assays: 1829 (Project Summary), 1814 (Primary HTS)]", "type": "functional"}, "[6]": {"experiment": "Luminescence Cell-Based Dose Response HTS to Identify Activators of Luciferase Translation or Activity in H4 […] Cells. [Related pubchem assays: 1829 (Project Summary), 1814 (Primary HTS)]", "type": "functional"}, "H4": {"system": "H4", "experiment": "Luminescence Cell-Based Dose Response HTS to Identify Activators of 5'UTR Stem-Loop Driven Prion Protein mRNA Translation in H4 Neuroglioblastoma Cells. [Related pubchem assays: 1829 (Project Summary), 1814 (Primary HTS)]", "type": "functional", "conditions": "Homo sapiens"}, "[7]": {"experiment": "HepG2 cell cytotoxicity, dose response, cytotoxicity control for Shn3 inhibitor project, CellTiter-Glo, cherry-picked (AID 624134)", "type": "functional, cell-based"}, "[8]": {"experiment": "Shn3 3'UTR reporter inhibitors, dose response, cell-based, Clone20 osteoblasts, firefly luciferase, cherry-picked (AID 624132)", "type": "functional"}, "[9]": {"experiment": "control 3'UTR Renilla luciferase suppression, dose response, counter-screen for Shn3 inhibitor project, cell-based, Clone20-Shn3RL, cherry-picked (AID 624133)", "type": "functional"}, "[10]": {"experiment": "NIH-3T3 fibroblast cytotoxicity, dose response, cytotoxicity control, cell-based, fluorescence, Alamar Blue, secondary assay (AID 2327);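 also: NIH-3T3 mouse fibroblasts cultured with fluconazole at 8 µg/mL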", "type": "functional"}, "cells [11]": {"experiment": "cells", "type": "functional, cell-based"}, "[12]": {"experiment": "C. albicans growth with fluconazole, confirmation, fluorescence, retest (AID 2467)", "type": "functional, cell-based"}, "cells [13]": {"experiment": "cells", "type": "functional, cell-based", "remark": "listed apart in the source"}}, "note": "Activity calls are given as the source filed them.", "data": [{"smiles": "NS(=O)(=O)c1ccc(NC(=S)NC(=O)c2ccc(-c3ccccc3)cc2)cc1", "values": [{"measurement": "IC50", "setting": "[1]", "result": "> 66 µM (inactive)"}, {"measurement": "IC50", "setting": "[2]", "result": "> 66 µM (inactive)"}]}, {"smiles": "Cc1ccc(CN(CC(=O)NC2CCCC2)C(=O)CSc2nnc(COc3ccccc3)o2)cc1", "values": [{"measurement": "IC50", "setting": "[1]", "result": "> 66 µM (inactive)"}, {"measurement": "IC50", "setting": "[2]", "result": "> 66 µM (inactive)"}]}, {"smiles": "O=C(COc1ncnc2ccccc12)Nc1ccc(Cl)c([N+](=O)[O-])c1", "values": [{"measurement": "IC50", "setting": "Fatty acid synthase [3]", "result": "8.42 µM (active)"}, {"measurement": "IC50", "setting": "Fatty acid synthase [4]", "result": "6.52 µM (active)"}]}, {"smiles": "C1=C(CCNc2[nH]cnc3ncnc2-3)CCCC1", "values": [{"measurement": "EC50", "setting": "[5]", "result": "52.3 µM (active)"}, {"measurement": "EC50", "setting": "[6]", "result": "20 µM (active)"}, {"measurement": "EC50", "setting": "H4", "result": "40 µM (active)"}]}, {"smiles": "Cc1ccc2c(c1)sc(C)[n+]2CCCS(=O)(=O)[O-]", "values": [{"measurement": "IC50", "setting": "[1]", "result": "> 66 µM (inactive)"}, {"measurement": "IC50", "setting": "[2]", "result": "> 66 µM (inactive)"}]}, {"smiles": "NC(=NOC(=O)CCC1CCCC1)c1cccc([N+](=O)[O-])c1", "values": [{"measurement": "IC50", "setting": "Fatty acid synthase [3]", "result": "7.47 µM (active)"}, {"measurement": "IC50", "setting": "Fatty acid synthase [4]", "result": "4.54 µM (active)"}]}, {"smiles": "CCCCNC(=O)CN1C(=O)c2cccc(N)c2C1=O", "values": [{"measurement": "IC50", "setting": "[1]", "result": "> 66 µM (inactive)"}, {"measurement": "IC50", "setting": "[2]", "result": "31.6 µM (inactive)"}]}, {"smiles": "C=C(C)CSc1ncc(-c2cccc(C(F)(F)F)c2)cn1", "values": [{"measurement": "IC50", "setting": "Fatty acid synthase [3]", "result": "13.3 µM (active)"}, {"measurement": "IC50", "setting": "Fatty acid synthase [4]", "result": "6.31 µM (active)"}]}, {"smiles": "CCN(CC)S(=O)(=O)c1ccc(N(C)Cc2cccc(OC)c2OC)nc1", "values": [{"measurement": "AC50", "setting": "[7]", "result": "57.1 µM (active)"}]}, {"smiles": "Cc1nnsc1[S+]([O-])c1ccc(Br)cc1", "note": "(stereo not given)", "values": [{"measurement": "EC50", "setting": "[5]", "result": "21.9 µM (active)"}, {"measurement": "EC50", "setting": "[6]", "result": "6.67 µM (active)"}, {"measurement": "EC50", "setting": "H4", "result": "> 120 µM (not active)"}]}, {"smiles": "CC12CC3(C)CC(C)(C1)CC(C(=O)NC(=S)NC(C)(C)C)(C2)C3", "values": [{"measurement": "IC50", "setting": "[1]", "result": "> 66 µM (inactive)"}, {"measurement": "IC50", "setting": "[2]", "result": "> 66 µM (inactive)"}]}, {"smiles": "Cc1ccc(CC(=O)Nc2ccncc2)cc1", "values": [{"measurement": "AC50", "setting": "[8]", "result": "2.39 µM (active)"}, {"measurement": "AC50", "setting": "[7]", "result": "3.99 µM (active)"}, {"measurement": "AC50", "setting": "[9]", "result": "15.2 µM (active)"}]}, {"smiles": "CCOC(=O)C1CCCN(C(=O)c2ccc3oc(CCc4ccccc4)nc3c2)C1", "note": "(stereo not given)", "values": [{"measurement": "EC50", "setting": "[10]", "result": "> 150 µM (inactive)"}, {"measurement": "EC50", "setting": "cells [11]", "result": "> 350 µM (not active)"}, {"measurement": "EC50", "setting": "[12]", "result": "> 38 µM (not active)"}, {"measurement": "EC50", "setting": "cells [13]", "result": "> 350 µM (not active)"}]}]}
